Laboratory results from patent US20240024488A1, “COMPOUNDS AND USES THEREOF” (Foghorn Therapeutics Inc., priority 2020, published 2024).

Columns and labels:
[1] = target: T1, HiBit-BRM fusion protein (Homo sapiens, UniProt P51531); assay: HiBiT-BRM cell-based degradation assay (Nano-Glo HiBiT Lytic Detection, 24 h); details: HeLa cell line expressing HiBiT-BRM; for DC50: read-out: BRM HiBit Degradation IC50
T1 construct: expressed in transfected cells
How it was run: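 HeLa cells stably expressing HiBiT-BRM were treated for 24 h with compounds (10-point 3-fold dilutions, 30 μM final top dose, in duplicate). HiBiT was detected by lytic LgBiT complementation luminescence. % degradation was normalized to DMSO (high control) and 2 μM of a reference BRM/BRG1 degrader (low control).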

[2] = target: T2, HiBit-BRG1 fusion protein (Homo sapiens, UniProt P51532); assay: HiBiT-BRG1 cell-based degradation assay (Nano-Glo HiBiT Lytic Detection, 24 h); details: HeLa cell line expressing HiBit-BRG1 and LgBit; for Dmax: read-out: BRG1 HiBit Degradation Maximum (%); for DC50: read-out: BRMG1 HiBit Degradation IC50
T2 construct: expressed in transfected cells
How it was run: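 Luminescence from Nano-Glo HiBiT lytic detection, read after 24 h compound exposure, scored degradation in a stable HeLa HiBiT-BRG1/LgBit line seeded at 5000 cells/well. DMSO wells defined 0% and 2 μM known BRM/BRG1 degrader wells defined full degradation.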

T2 sequence (P51532 whole entry, the tested form may be a part): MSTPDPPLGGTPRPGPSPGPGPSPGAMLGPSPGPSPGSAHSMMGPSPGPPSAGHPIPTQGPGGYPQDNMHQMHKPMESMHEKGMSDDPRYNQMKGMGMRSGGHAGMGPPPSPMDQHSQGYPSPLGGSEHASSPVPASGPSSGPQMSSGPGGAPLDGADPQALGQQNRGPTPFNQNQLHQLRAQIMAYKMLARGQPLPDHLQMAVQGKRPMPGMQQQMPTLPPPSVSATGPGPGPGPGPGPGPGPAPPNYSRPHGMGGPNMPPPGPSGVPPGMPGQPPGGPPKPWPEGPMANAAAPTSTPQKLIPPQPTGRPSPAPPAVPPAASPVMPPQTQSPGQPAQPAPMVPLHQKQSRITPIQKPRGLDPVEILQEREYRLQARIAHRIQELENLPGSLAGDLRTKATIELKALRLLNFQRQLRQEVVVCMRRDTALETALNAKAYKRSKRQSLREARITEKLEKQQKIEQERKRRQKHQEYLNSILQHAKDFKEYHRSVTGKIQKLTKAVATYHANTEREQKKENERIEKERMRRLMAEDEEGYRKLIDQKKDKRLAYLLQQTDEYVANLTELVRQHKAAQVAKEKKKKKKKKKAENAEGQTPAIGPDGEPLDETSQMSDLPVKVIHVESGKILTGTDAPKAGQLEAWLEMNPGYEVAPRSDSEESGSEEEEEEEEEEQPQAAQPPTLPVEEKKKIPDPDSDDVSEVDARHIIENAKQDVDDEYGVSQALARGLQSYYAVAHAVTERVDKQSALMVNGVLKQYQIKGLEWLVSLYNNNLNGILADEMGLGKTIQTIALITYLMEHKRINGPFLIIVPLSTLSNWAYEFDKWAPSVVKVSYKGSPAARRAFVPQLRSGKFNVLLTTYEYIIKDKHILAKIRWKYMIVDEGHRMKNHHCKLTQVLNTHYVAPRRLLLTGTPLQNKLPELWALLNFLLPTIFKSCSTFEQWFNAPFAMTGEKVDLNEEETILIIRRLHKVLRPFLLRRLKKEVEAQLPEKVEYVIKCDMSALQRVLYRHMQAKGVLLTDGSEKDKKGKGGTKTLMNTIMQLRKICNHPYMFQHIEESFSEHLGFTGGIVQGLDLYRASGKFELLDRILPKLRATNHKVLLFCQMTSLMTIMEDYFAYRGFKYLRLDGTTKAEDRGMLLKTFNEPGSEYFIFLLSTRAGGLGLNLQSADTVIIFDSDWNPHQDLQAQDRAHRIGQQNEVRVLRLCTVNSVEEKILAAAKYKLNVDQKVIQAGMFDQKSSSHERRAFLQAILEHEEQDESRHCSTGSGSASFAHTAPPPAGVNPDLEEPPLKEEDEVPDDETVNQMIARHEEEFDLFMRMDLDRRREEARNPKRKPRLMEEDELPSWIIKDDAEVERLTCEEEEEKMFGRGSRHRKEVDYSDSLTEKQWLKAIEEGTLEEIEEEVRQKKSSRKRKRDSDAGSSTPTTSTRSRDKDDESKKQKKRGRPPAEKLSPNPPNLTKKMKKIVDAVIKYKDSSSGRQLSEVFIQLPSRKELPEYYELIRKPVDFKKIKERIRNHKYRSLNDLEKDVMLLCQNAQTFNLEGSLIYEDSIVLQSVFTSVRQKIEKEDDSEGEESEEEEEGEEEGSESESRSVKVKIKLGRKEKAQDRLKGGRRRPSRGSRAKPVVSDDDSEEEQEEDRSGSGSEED
T1 sequence (P51531 whole entry, the tested form may be a part): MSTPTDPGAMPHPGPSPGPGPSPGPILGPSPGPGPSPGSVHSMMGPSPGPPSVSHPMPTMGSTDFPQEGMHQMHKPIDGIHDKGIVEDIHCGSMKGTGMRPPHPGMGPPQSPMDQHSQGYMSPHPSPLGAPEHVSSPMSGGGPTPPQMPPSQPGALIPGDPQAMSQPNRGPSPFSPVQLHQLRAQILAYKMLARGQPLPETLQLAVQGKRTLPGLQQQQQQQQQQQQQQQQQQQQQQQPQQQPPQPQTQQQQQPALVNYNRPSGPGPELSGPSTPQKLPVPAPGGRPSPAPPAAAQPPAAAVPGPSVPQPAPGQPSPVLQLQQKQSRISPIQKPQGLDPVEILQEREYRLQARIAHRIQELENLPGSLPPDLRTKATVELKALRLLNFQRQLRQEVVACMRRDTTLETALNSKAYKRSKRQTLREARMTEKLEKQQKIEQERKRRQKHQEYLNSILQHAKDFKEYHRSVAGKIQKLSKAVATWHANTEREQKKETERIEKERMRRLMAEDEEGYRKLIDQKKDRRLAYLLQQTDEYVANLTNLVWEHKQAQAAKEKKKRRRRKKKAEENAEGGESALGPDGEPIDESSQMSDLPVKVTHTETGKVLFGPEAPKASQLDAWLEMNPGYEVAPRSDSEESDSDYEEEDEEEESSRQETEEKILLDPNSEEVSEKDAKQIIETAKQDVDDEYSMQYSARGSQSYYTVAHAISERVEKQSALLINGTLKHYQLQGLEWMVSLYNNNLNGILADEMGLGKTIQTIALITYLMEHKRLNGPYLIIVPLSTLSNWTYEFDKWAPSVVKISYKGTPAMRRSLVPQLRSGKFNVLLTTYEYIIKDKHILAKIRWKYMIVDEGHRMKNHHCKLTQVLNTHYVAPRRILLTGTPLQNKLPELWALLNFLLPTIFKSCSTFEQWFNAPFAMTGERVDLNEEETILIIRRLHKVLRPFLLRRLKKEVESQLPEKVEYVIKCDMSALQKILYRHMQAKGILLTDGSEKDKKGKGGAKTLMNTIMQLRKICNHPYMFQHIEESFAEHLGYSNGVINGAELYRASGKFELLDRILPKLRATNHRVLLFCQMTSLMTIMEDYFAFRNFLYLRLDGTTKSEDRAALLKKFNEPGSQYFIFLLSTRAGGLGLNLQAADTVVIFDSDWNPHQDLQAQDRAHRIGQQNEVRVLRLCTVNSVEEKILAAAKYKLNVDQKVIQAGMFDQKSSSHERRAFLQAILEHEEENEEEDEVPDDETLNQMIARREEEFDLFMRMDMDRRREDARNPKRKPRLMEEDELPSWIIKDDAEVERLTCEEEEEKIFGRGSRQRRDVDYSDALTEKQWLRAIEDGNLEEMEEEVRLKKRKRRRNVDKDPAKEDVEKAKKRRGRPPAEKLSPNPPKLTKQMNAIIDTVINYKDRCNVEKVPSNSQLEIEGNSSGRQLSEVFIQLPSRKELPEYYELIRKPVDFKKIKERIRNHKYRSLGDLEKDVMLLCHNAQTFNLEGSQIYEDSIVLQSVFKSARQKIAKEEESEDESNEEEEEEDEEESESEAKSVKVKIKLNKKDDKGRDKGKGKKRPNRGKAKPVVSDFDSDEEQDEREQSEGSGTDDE

SMILES | Dmax [2] [%] | DC50 [1] [nM] | DC50 [2] [nM] | BRM HiBit Degradation Maximum (%) [1]
Cc1ncsc1-c1ccc([C@H](C)NC(=O)[C@@H]2C[C@@H](O)CN2C(=O)C(c2cc(N3CCC(C(=O)N4CC(c5c[nH]c6nnc(-c7ccccc7O)cc56)C4)CC3)no2)C(C)C)cc1 (mixture of isomers) [Compound 236, (2S,4R)-4-hydroxy-1-((R)-2-(3-(4-(3-(3-(2-hydroxyphenyl)-7H-pyrrolo[2,3-c]pyridazin-5-yl)azetidine-1-carbonyl)piperidin-1-yl)isoxazol-5-yl)-3-methylbutanoyl)-N-((S)-1-(4-(4-methylthiazol-5-yl)phenyl)ethyl)pyrrolidine-2-carboxamide] | < 50 | – | – | C (“C” indicates maximum degradation < 50%)
Cc1ncsc1-c1ccc([C@H](C)NC(=O)[C@@H]2C[C@@H](O)CN2C(=O)[C@@H](c2cc(OCCN3CC(CCCc4cc5cc(-c6ccccc6O)nnc5[nH]4)C3)no2)C(C)C)cc1 (racemic) [Compound 243, (2S,4R)-4-hydroxy-1-[(2R)-2-{3-[2-(3-{3-[3-(2-hydroxyphenyl)-7H-pyrrolo[2,3-c]pyridazin-6-yl]propyl}azetidin-1-yl)ethoxy]-1,2-oxazol-5-yl}-3-methylbutanoyl]-N-[(1S)-1-[4-(4-methyl-1,3-thiazol-5-yl)phenyl]ethyl]pyrrolidine-2-carboxamide] | > 50 | > 100 | > 1000 | A (“A” indicates maximum degradation ≥ 75%)
Cc1ncsc1-c1ccc([C@H](C)NC(=O)[C@@H]2C[C@@H](O)CN2C(=O)[C@@H](c2cc(OCCN3CC(CCc4cc5cc(-c6ccccc6O)nnc5[nH]4)C3)no2)C(C)C)cc1 (racemic) [Compound 244, (2S,4R)-4-hydroxy-1-((R)-2-(3-(2-(3-(2-(3-(2-hydroxyphenyl)-7H-pyrrolo[2,3-c]pyridazin-6-yl)ethyl)azetidin-1-yl)ethoxy)isoxazol-5-yl)-3-methylbutanoyl)-N-((S)-1-(4-(4-methylthiazol-5-yl)phenyl)ethyl)pyrrolidine-2-carboxamide] | > 50 | > 100 | – | A (“A” indicates maximum degradation ≥ 75%)
Cc1ncsc1-c1ccc([C@H](C)NC(=O)[C@@H]2C[C@@H](O)CN2C(=O)[C@@H](c2cc(OCCN3[C@@H]4CC[C@H]3CN(c3cc5cc(-c6ccccc6O)nnc5[nH]3)C4)no2)C(C)C)cc1 (racemic) [Compound 245, (2S,4R)-4-hydroxy-1-((2R)-2-(3-(2-(3-(3-(2-hydroxyphenyl)-7H-pyrrolo[2,3-c]pyridazin-6-yl)-3,8-diazabicyclo[3.2.1]octan-8-yl)ethoxy)isoxazol-5-yl)-3-methylbutanoyl)-N-((S)-1-(4-(4-methylthiazol-5-yl)phenyl)ethyl)pyrrolidine-2-carboxamide] | > 75 | > 10 | > 100 | A (“A” indicates maximum degradation ≥ 75%)
Cc1ncsc1-c1ccc([C@H](C)NC(=O)[C@@H]2C[C@@H](O)CN2C(=O)[C@@H](c2cc(OCCNC(=O)CN3CC(c4cc5cc(-c6ccccc6O)nnc5[nH]4)C3)no2)C(C)C)cc1 (racemic) [Compound 249, (2S,4R)-4-hydroxy-1-((R)-2-(3-(2-(2-(3-(3-(2-hydroxyphenyl)-7H-pyrrolo[2,3-c]pyridazin-6-yl)azetidin-1-yl)acetamido)ethoxy)isoxazol-5-yl)-3-methylbutanoyl)-N-((S)-1-(4-(4-methylthiazol-5-yl)phenyl)ethyl)pyrrolidine-2-carboxamide] | < 50 | > 100 | – | A (“A” indicates maximum degradation ≥ 75%)
Cc1ncsc1-c1ccc([C@H](C)NC(=O)[C@@H]2C[C@@H](O)CN2C(=O)[C@@H](c2cc(OCCNC(=O)C(=O)N3CC(c4c[nH]c5nnc(-c6ccccc6O)cc45)C3)no2)C(C)C)cc1 (racemic) [Compound 250, (2S,4R)-4-hydroxy-1-((R)-2-(3-(2-(2-(3-(3-(2-hydroxyphenyl)-7H-pyrrolo[2,3-c]pyridazin-5-yl)azetidin-1-yl)-2-oxoacetamido)ethoxy)isoxazol-5-yl)-3-methylbutanoyl)-N-((S)-1-(4-(4-methylthiazol-5-yl)phenyl)ethyl)pyrrolidine-2-carboxamide] | < 50 | > 100 | – | A (“A” indicates maximum degradation ≥ 75%)

Now from value to compound, other results behind:

Dmax [2] [%] | DC50 [1] [nM] | DC50 [2] [nM] | SMILES | BRM HiBit Degradation Maximum (%) [1]
< 50 | > 10 | – | Cc1ncsc1-c1ccc([C@H](C)NC(=O)[C@@H]2C[C@@H](O)CN2C(=O)[C@@H](c2cc(OCCN3CC(c4[nH]c5nnc(-c6ccccc6O)cc5c4Cl)C3)no2)C(C)C)cc1 (racemic) [Compound 238, (2S,4R)-1-[(2R)-2-[3-(2-{3-[5-chloro-3-(2-hydroxyphenyl)-7H-pyrrolo[2,3-c]pyridazin-6-yl]azetidin-1-yl}ethoxy)-1,2-oxazol-5-yl]-3-methylbutanoyl]-4-hydroxy-N-[(1S)-1-[4-(4-methyl-1,3-thiazol-5-yl)phenyl]ethyl]pyrrolidine-2-carboxamide] | A (“A” indicates maximum degradation ≥ 75%)
< 50 | > 100 | – | Cc1ncsc1-c1ccc([C@H](C)NC(=O)[C@@H]2C[C@@H](O)CN2C(=O)[C@@H](c2cc(OCCNC(=O)c3cc4cc(-c5ccccc5O)nnc4[nH]3)no2)C(C)C)cc1 (racemic) [Compound 239, N-(2-((5-((R)-1-((2S,4R)-4-hydroxy-2-(((S)-1-(4-(4-methylthiazol-5-yl)phenyl)ethyl)carbamoyl)pyrrolidin-1-yl)-3-methyl-1-oxobutan-2-yl)isoxazol-3-yl)oxy)ethyl)-3-(2-hydroxyphenyl)-7H-pyrrolo[2,3-c]pyridazine-6-carboxamide] | A (“A” indicates maximum degradation ≥ 75%)
> 50 | > 100 | > 1000 | Cc1ncsc1-c1ccc([C@H](C)NC(=O)[C@@H]2C[C@@H](O)CN2C(=O)[C@@H](c2cc(OCCNC(=O)C(=O)N3CC(c4cc5cc(-c6ccccc6O)nnc5[nH]4)C3)no2)C(C)C)cc1 (racemic) [Compound 240, (2S,4R)-4-hydroxy-1-((R)-2-(3-(2-(2-(3-(3-(2-hydroxyphenyl)-7H-pyrrolo[2,3-c]pyridazin-6-yl)azetidin-1-yl)-2-oxoacetamido)ethoxy)isoxazol-5-yl)-3-methylbutanoyl)-N-((S)-1-(4-(4-methylthiazol-5-yl)phenyl)ethyl)pyrrolidine-2-carboxamide] | A (“A” indicates maximum degradation ≥ 75%)
< 50 | > 100 | – | Cc1ncsc1-c1ccc([C@H](C)NC(=O)[C@@H]2C[C@@H](O)CN2C(=O)[C@@H](c2cc(OCCN(C)C(=O)c3cc4cc(-c5ccccc5O)nnc4[nH]3)no2)C(C)C)cc1 (racemic) [Compound 242, N-(2-((5-((R)-1-((2S,4R)-4-hydroxy-2-(((S)-1-(4-(4-methylthiazol-5-yl)phenyl)ethyl)carbamoyl)pyrrolidin-1-yl)-3-methyl-1-oxobutan-2-yl)isoxazol-3-yl)oxy)ethyl)-3-(2-hydroxyphenyl)-N-methyl-7H-pyrrolo[2,3-c]pyridazine-6-carboxamide] | B (“B” indicates maximum degradation ≥ 50%)
> 75 | > 10 | > 100 | Cc1ncsc1-c1ccc([C@H](C)NC(=O)[C@@H]2C[C@@H](O)CN2C(=O)[C@@H](c2cc(OCCN(C)CC34CC(c5cc6cc(-c7ccccc7O)nnc6[nH]5)(C3)C4)no2)C(C)C)cc1 (racemic) [Compound 246, (2S,4R)-4-hydroxy-1-((R)-2-(3-(2-(((3-(3-(2-hydroxyphenyl)-7H-pyrrolo[2,3-c]pyridazin-6-yl)bicyclo[1.1.1]pentan-1-yl)methyl)(methyl)amino)ethoxy)isoxazol-5-yl)-3-methylbutanoyl)-N-((S)-1-(4-(4-methylthiazol-5-yl)phenyl)ethyl)pyrrolidine-2-carboxamide] | A (“A” indicates maximum degradation ≥ 75%)
> 50 | > 10 | > 1000 | Cc1ncsc1-c1ccc([C@H](C)NC(=O)[C@@H]2C[C@@H](O)CN2C(=O)[C@@H](c2cc(N3CCC(CN4CC(c5cc6cc(-c7ccccc7O)nnc6[nH]5)C4)CC3)no2)C(C)C)cc1 (racemic) [Compound 247, (2S,4R)-4-hydroxy-1-((R)-2-(3-(4-((3-(3-(2-hydroxyphenyl)-7H-pyrrolo[2,3-c]pyridazin-6-yl)azetidin-1-yl)methyl)piperidin-1-yl)isoxazol-5-yl)-3-methylbutanoyl)-N-((S)-1-(4-(4-methylthiazol-5-yl)phenyl)ethyl)pyrrolidine-2-carboxamide] | A (“A” indicates maximum degradation ≥ 75%)
> 50 | > 10 | > 100 | Cc1ncsc1-c1ccc([C@H](C)NC(=O)[C@@H]2C[C@@H](O)CN2C(=O)[C@@H](c2cc(N3CCC(N4CC(c5cc6cc(-c7ccccc7O)nnc6[nH]5)C4)CC3)no2)C(C)C)cc1 (racemic) [Compound 248, (2S,4R)-4-hydroxy-1-((R)-2-(3-(4-(3-(3-(2-hydroxyphenyl)-7H-pyrrolo[2,3-c]pyridazin-6-yl)azetidin-1-yl)piperidin-1-yl)isoxazol-5-yl)-3-methylbutanoyl)-N-((S)-1-(4-(4-methylthiazol-5-yl)phenyl)ethyl)pyrrolidine-2-carboxamide] | A (“A” indicates maximum degradation ≥ 75%)
